Patent publication US6599914B2, “Inhibition of cytokine generation” (Schering Corporation, priority 2001, dated 2003)
Entries after “also recorded” stand apart in the source; their conditions may differ.

Experiments:
IL-4 mRNA = conditions: desloratadine 10 μM
Protocol: Cultures for the analysis of IL-4 mRNA were performed in 1.5 ml polypropylene microcentrifuge tubes, as described above. […] Total RNA was isolated using the RNAzol protocol (Tel-test Inc., Friendswood, Tex.) after 2 hours incubation, which is the time that IL-4 message expression peaks using IgE-dependent activation (Schroeder, et al., J. Immunol.1997, Vol.158:5448-5454). Following isopropanol precipitation, the RNA was washed with 70% ethanol and dried under vacuum. Subsequently, the RNA was resuspended in 25 μl of diethipyrocarbonate (DEPC)-treated water and stored at −80° C. Reverse Transcription (RT) and polymerase chain reaction (PCR) were performed with serial dilutions of RNA as previously detailed (MacGlashan, et al., J. Immunol, 1994; Vol. 152:3006-3016; Schroeder, at al., J. Immunol., 1997, Vol. 158: 5448-5454) using the GeneAmp RNA PCR kit (Perkin-Elmer Cetus, Norwalk, Conn.). PCR products were visualized in 3% agrose gels using ethidium bromide staining.
Total RNA was isolated after 2 h and used for dilutional RT-PCR analysis to compare message expression for IL-4 and the housekeeping gene, hypoxanthine phosphoribosyl transferase (HPRT) (panel a).
For these experiments, we used a dilutional RT-PCR protocol to provide a semi-quantitative analysis.

[1] = system: human basophilic leukocyte cells; conditions: in vitro; cited from earlier work
human basophils = conditions: ionomycin 500 ng/ml; 0.1, 1.0 and 10 μM desloratadine; 4 hours
Protocol: Mixed leukocyte suspensions containing basophils were prepared either using double-Percoll density centrifugation as described (Schroeder, et al., J. Immunol.,1994, Vol. 153: 1808, or by a combination of countercurrent elutriation and Percoll density centrifugation protocols (MacGlashan, et al., J. Immunol.,1994, Vol. 153:3006-3016). The percentages of basophils obtained using these protocols typically ranged between 5-50% and 10-30%, respectively, and were determined by counting Alcian blue positive and negative stained cells on a Spiers-Levy chamber (Gilbert and Ornstein, 1975). For some experiments, the basophils were additionally purified to >99.9% using a negative-selection protocol (Miltenyi Corp., Auburn, Calif.). […] For the analysis of IL-4 mRNA expression, cells in C-IMDM were cultured in autoclaved (RNase-free) 1.5 ml microcentrifuge tubes (see below), since this allowed for a more precise way to quantitatively isolate mRNA without the need for transferring cells from culture wells before extraction. […] Histamine, LTC4, and IL-4 were all measured in aliquots of culture supernatant taken at 4 hours. […] LTC4 was measured by an in-house RIA (MacGlashan, et al., J. Immunol. 1986, Vol.136:2231-2239). IL-4 protein was measured by a commercial ELISA (Biosource International). […]

[2] = system: seasonal allergic rhinitis patients; assay: Double-blinded, randomized clinical trials in seasonal allergic rhinitis patients
Protocol: Efficacy endpoints in all the studies were Total Symptom Score, Total Nasal Symptom Score, Total Non-nasal Symptom Score, and Health Quality of Life (HQOL) analysis in efficacy trials. […] This parameter measures the total symptom relief by the patient after 24 hours before taking the next day dose.

endothelial cells = conditions: in vitro; cited from earlier work
basophilic cells = conditions: relatively high concentrations; cited from earlier work

SMILES	effect on expression of the housekeeping gene HPRT (IL-4 mRNA)	IgE- and non-IgE-mediated histamine release [1]	effect on histamine secretion induced by ionomycin (human basophils)	reduction of nasal symptoms versus placebo ([2]; 5 mg)	total symptom scores ([2]; 5 mg once daily)	AM NOW total symptom score, full 24 hour dosing interval ([2]; 5 mg to 20 mg dosage range)	differences in effectiveness across subgroups defined by gender, age, or race ([2]; 5 mg to 20 mg dosage range)	histamine-induced release of IL-6 and IL-8 (endothelial cells)	inhibition of IL-4 and IL-13 secretion (basophilic cells) [%]
Clc1ccc2c(c1)CCc1cccnc1C2=C1CCNCC1 [desloratadine]	no effect; also recorded: unaffected	inhibits	lack of an effect; also recorded: unaffected	significantly (p<0.01) more effective than placebo	significantly reduced	Statistically significant (p<0.05) reductions	no significant differences	reduces	–
CC(C)(C)c1ccc(C(O)CCCN2CCC(C(O)(c3ccccc3)c3ccccc3)CC2)cc1 (stereo not drawn) [terfenadine]	–	–	–	–	–	–	–	–	50
